Experiments:
[1] = target: recombinant human DPPI (Cathepsin C) (Homo sapiens (Human), UniProt P53634); assay: Inhibition of human DPPI (Cathepsin C); assay type: biochemical; conditions: substrate Gly-Arg-AMC
Method: Inhibition of Human DPPI (Cathepsin C)
Bovine serum albumin (BSA; Prod. No. A3059) and Dithiothreitol (DTT; Prod. No D0632) were from Sigma. […] The DPP1 inhibitor Gly-Phe-DMK was purchased from MP Biomedicals (Prod.-No. 03DK00625). The recombinant human DPPI was purchased from Prozymex. All other materials were of highest grade commercially available.
The following buffers were used: MES buffer: 25 mM MES, 50 mM NaCl, 5 mM DTT, adjusted to pH 6.0, containing 0.1% BSA; TAGZyme Buffer: 20 mM NaH2PO4, 150 mM NaCl adjusted to pH 6.0 with HCl
Then, 5 μL of substrate in MES buffer (final concentration 50 μM) were added. The microtiter plates were then incubated at room temperature for 30 min. Then, the reaction was stopped by adding 10 μL of Gly-Phe-DMK in MES-buffer (final concentration 1 μM).
The analysis of the data was performed by calculating the percentage of fluorescence in the presence of test compound in comparison to the fluorescence of the vehicle control after subtracting the background fluorescence using the following formula: (RFU(sample)−RFU(background))*100/(RFU(control)−RFU(background))
Data from these calculations were used to generate IC50 values for inhibition of DPPI, respectively.

[2] = target: recombinant human Cathepsin K (Homo sapiens (Human), UniProt P43235); assay: Inhibition of human Cathepsin K; assay type: biochemical; conditions: substrate Z-Gly-Pro-Arg-AMC
Excerpt: Inhibition of Human Cathepsin K
Materials: Microtiterplates (Optiplate-384 F were purchased from PerkinElmer (Prod. No. 6007270). The substrate Z-Gly-Pro-Arg-AMC was from Biomol (Prod.-No. P-142). L-Cysteine (Prod. No. 168149) was from Sigma. Sodium acetate was from Merck (Prod.-No. 6268.0250), EDTA was from Fluka (Prod.-No. 03680). The inhibitor E-64 was purchased from Sigma (Prod.-No. E3132). The recombinant human Cathepsin K proenzyme was purchased from Biomol (Prod. No. SE-367). All other materials were of highest grade commercially available.
The following buffers were used: Activation buffer: 32.5 mM sodium acetate, adjusted to pH 3.5 with HCl; Assay buffer: 150 mM sodium acetate, 4 mM EDTA, 20 mM L-Cysteine, adjusted to pH 5.5 with HCl,
To activate the proenzyme, 5 μl procathepsin K were mixed with 1 ul activation buffer, and incubated at room temperature for 30 min.
5 μL test compound (final concentration 0.1 nM to 100 μM) in aqua bidest (containing 4% DMSO, final DMSO concentration 1%) were mixed with 10 uL of Cathepsin K in assay buffer (final concentration 2 ng/μL) and incubated for 10 min. […] The plates were then incubated at room temperature for 60 min. Then, the reaction was stopped by adding 10 μL of E64 in assay buffer (final concentration 1 μM). The fluorescence in the wells was determined using a Molecular Devices SpectraMax M5 Fluorescence Reader (Ex 360 nm, Em 460 nm).
Each assay microtiter plate contains wells with vehicle controls (1% DMSO in bidest) as reference for non-inhibited enzyme activity (100% Ctl; high values) and wells with inhibitor (E64 in bidest+1% DMSO, final concentration […]) as controls for background fluorescence (0% Ctl; low values). The analysis of the data was performed by calculating the percentage of fluorescence in the presence of test compound in comparison to the fluorescence of the vehicle control after subtracting the background fluorescence: (RFU(sample)−RFU(background))*100/(RFU(control)−RFU(background))
Data from these calculations were used to generate IC50 values for inhibition of Cathepsin K, respectively.

recombinant human DPPI (Cathepsin C), sequence (P53634 231-394): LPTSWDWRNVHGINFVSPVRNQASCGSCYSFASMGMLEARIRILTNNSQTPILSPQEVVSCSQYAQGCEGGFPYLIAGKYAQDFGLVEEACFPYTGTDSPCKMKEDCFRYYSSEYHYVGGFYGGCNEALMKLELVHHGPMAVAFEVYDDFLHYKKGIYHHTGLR
recombinant human DPPI (Cathepsin C), sequence (P53634 395-463): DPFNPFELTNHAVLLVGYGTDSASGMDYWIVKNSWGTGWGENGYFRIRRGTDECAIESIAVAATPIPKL
recombinant human DPPI (Cathepsin C), sequence (P53634 25-134): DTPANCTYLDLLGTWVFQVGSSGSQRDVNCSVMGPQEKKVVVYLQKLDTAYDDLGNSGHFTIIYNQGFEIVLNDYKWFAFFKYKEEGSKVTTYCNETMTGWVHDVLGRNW
recombinant human Cathepsin K, sequence (P43235 115-329): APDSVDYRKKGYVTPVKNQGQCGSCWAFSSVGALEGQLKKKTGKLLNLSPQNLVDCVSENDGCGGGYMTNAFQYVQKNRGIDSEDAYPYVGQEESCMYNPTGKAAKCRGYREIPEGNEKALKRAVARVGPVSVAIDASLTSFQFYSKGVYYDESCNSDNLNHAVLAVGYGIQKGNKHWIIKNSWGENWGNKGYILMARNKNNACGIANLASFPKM

| Structure (SMILES) | IC50 [1] [nM] | IC50 [2] [nM] |
| --- | --- | --- |
| N#C[C@H](Cc1ccc(-c2ccc3c(c2)C(=O)OC3)cc1F)NC(=O)[C@H]1N[C@@H]2CC[C@H]1C2 [Example 34] | 4.6 | 2500 |
| N#C[C@H](Cc1ccc(-c2cccs2)cc1F)NC(=O)[C@H]1N[C@@H]2CC[C@H]1C2 [Example 36] | 4.7 | 3000 |
| N#C[C@H](Cc1ccc(-c2cccc(S(N)(=O)=O)c2)cc1F)NC(=O)[C@H]1N[C@@H]2CC[C@H]1C2 [Example 37] | 4.7 | 5100 |
| CC(=O)NCCn1cc(-c2ccc(C[C@@H](C#N)NC(=O)[C@H]3N[C@@H]4CC[C@H]3C4)c(F)c2)cn1 [Example 38] | 4.8 | 2900 |
| N#C[C@@H](Cc1ccc(-c2ccc3ncsc3c2)cc1F)NC(=O)[C@H]1N[C@@H]2CC[C@H]1C2 [Example 45] | 6.3 | 4400 |
| CCc1ncc(-c2ccc(C[C@@H](C#N)NC(=O)[C@H]3N[C@@H]4CC[C@H]3C4)c(F)c2)s1 [Example 46] | 6.9 | 4000 |
| CC(C)CC(=O)n1cc(-c2ccc(C[C@@H](C#N)NC(=O)[C@H]3N[C@@H]4CC[C@H]3C4)c(F)c2)cn1 [Example 48] | 7.2 | 3300 |
| CNS(=O)(=O)c1ccc(-c2ccc(CC(C#N)NC(=O)[C@H]3N[C@@H]4CC[C@H]3C4)c(F)c2)cc1 (some centres unmarked) [Example 51] | 7.5 | 4900 |
| N#CC(Cc1ccc(-c2ccc(S(N)(=O)=O)cc2)cc1F)NC(=O)[C@H]1N[C@@H]2CC[C@H]1C2 (some centres unmarked) [Example 56] | 8.3 | 4000 |
| N#C[C@H](Cc1ccc(-c2cnc(N3CCOCC3)s2)cc1F)NC(=O)[C@H]1N[C@@H]2CC[C@H]1C2 [Example 59] | 8.5 | 2500 |
| Cn1nc2ccccc2c1-c1ccc(C[C@@H](C#N)NC(=O)[C@H]2N[C@@H]3CC[C@H]2C3)c(F)c1 [Example 60] | 8.7 | 12300 |
| CN1C(=O)Cc2ccc(-c3cc(F)c(CC(C#N)NC(=O)[C@H]4N[C@@H]5CC[C@H]4C5)c(F)c3)cc21 (some centres unmarked) [Example 61] | 8.7 | 10900 |
| CC(C)Cn1cc(-c2ccc(C[C@@H](C#N)NC(=O)[C@H]3N[C@@H]4CC[C@H]3C4)c(F)c2)cn1 [Example 64] | 9.3 | 4200 |
| COc1ncc(-c2cn(-c3ccc(C[C@@H](C#N)NC(=O)[C@H]4N[C@@H]5CC[C@H]4C5)c(F)c3)nn2)cn1 [Example 66] | 9.4 | 4800 |
| N#C[C@H](Cc1ccc(-c2cn[nH]c2)cc1F)NC(=O)[C@H]1N[C@@H]2CC[C@H]1C2 [Example 69] | 9.9 | 2400 |
| Cn1ncc2ccc(-c3ccc(C[C@@H](C#N)NC(=O)[C@H]4N[C@H]5C[C@@H]4[C@@H]4C[C@@H]45)c(F)c3)cc21 [Example 70] | 10.2 | 12000 |
| CC(=O)c1ccc(-c2ccc(CC(C#N)NC(=O)[C@H]3N[C@@H]4CC[C@H]3C4)c(F)c2)s1 (some centres unmarked) [Example 72] | 10.8 | 7300 |
| N#C[C@H](Cc1ccc(-c2ccco2)cc1F)NC(=O)[C@H]1N[C@@H]2CC[C@H]1C2 [Example 73] | 11.2 | 3100 |
| N#C[C@H](Cc1ccc(-c2cnn(C(=O)C3CCOCC3)c2)cc1F)NC(=O)[C@H]1N[C@@H]2CC[C@H]1C2 [Example 74] | 11.4 | 2500 |
| N#C[C@H](Cc1ccc(-c2ccccc2)cc1F)NC(=O)[C@H]1N[C@@H]2CC[C@H]1C2 [Example 75] | 11.4 | 5300 |
| N#CC(Cc1ccc(-c2ccc3c(c2)CC(=O)N3)cc1F)NC(=O)[C@H]1N[C@@H]2CC[C@H]1C2 (some centres unmarked) [Example 79] | 12 | 3500 |
| Cc1nc(C)c(-c2ccc(C[C@@H](C#N)NC(=O)[C@H]3N[C@@H]4CC[C@H]3C4)c(F)c2)s1 [Example 80] | 12.4 | 4100 |

| Structure (SMILES) | IC50 [1] [nM] | IC50 [2] [nM] |
| --- | --- | --- |
| CN1C(=O)Cc2ccc(-c3ccc(C[C@@H](C#N)NC(=O)[C@H]4N[C@@H]5CC[C@H]4C5)c(Cl)c3)cc21 [Example 81] | 13.1 | 4500 |
| N#C[C@H](Cc1ccc(-n2cc(-c3ccc4occc4c3)nn2)cc1F)NC(=O)[C@H]1N[C@@H]2CC[C@H]1C2 [Example 84] | 13.7 | 4900 |
| N#Cc1sccc1-c1ccc(C[C@@H](C#N)NC(=O)[C@H]2N[C@@H]3CC[C@H]2C3)c(F)c1 [Example 85] | 14 | 3000 |
| Cc1occc1-c1ccc(CC(C#N)NC(=O)[C@H]2N[C@@H]3CC[C@H]2C3)c(F)c1 (some centres unmarked) [Example 92] | 17.7 | 8200 |
| Cc1ncc(-c2ccc(C[C@@H](C#N)NC(=O)[C@H]3N[C@H]4C[C@@H]3[C@@H]3C[C@@H]34)c(F)c2)s1 [Example 93] | 18.3 | 6900 |
| CC(O)Cc1cn(-c2ccc(C[C@@H](C#N)NC(=O)[C@H]3N[C@@H]4CC[C@H]3C4)c(F)c2)nn1 (some centres unmarked) [Example 101] | 23.9 | 6500 |
| N#CC(Cc1ccc(-c2ccoc2)cc1F)NC(=O)[C@H]1N[C@@H]2CC[C@H]1C2 (some centres unmarked) [Example 103] | 24.9 | 5900 |
| Cc1n[nH]cc1-c1ccc(CC(C#N)NC(=O)[C@H]2N[C@@H]3CC[C@H]2C3)c(F)c1 (some centres unmarked) [Example 104] | 24.9 | 10300 |
| Cn1c(=O)oc2cc(-c3ccc(CC(C#N)NC(=O)[C@H]4N[C@@H]5CC[C@H]4C5)c(F)c3)ccc21 (some centres unmarked) [Example 107] | 25.9 | 4700 |
| CCc1ncc(-c2ccc(C[C@@H](C#N)NC(=O)[C@H]3N[C@H]4C[C@@H]3[C@@H]3C[C@@H]34)c(F)c2)s1 [Example 113] | 36.4 | 8300 |
| N#C[C@H](Cc1ccc(-c2ccc(C(=O)O)s2)cc1F)NC(=O)[C@H]1N[C@@H]2CC[C@H]1C2 [Example 115] | 37.8 | 2300 |
| Cn1cc(-c2ccc(C[C@@H](C#N)NC(=O)[C@H]3N[C@@H]4CC[C@H]3C4)c(F)c2)c(C(F)(F)F)n1 [Example 118] | 44.3 | 3900 |
| COc1ccccc1-c1cn(-c2ccc(C[C@@H](C#N)NC(=O)[C@H]3N[C@@H]4CC[C@H]3C4)c(F)c2)nn1 [Example 119] | 51.2 | 4500 |
| Cc1noc(C)c1-c1ccc(C[C@@H](C#N)NC(=O)[C@H]2N[C@@H]3CC[C@H]2C3)c(F)c1 [Example 121] | 156 | 5200 |
| N#C[C@H](Cc1ccc(-c2ccc(C(N)=O)cc2)cc1F)NC(=O)[C@H]1N[C@H]2C[C@@H]1[C@@H]1C[C@@H]12 [Example 130] | 43.5 | 10200 |
| COC(=O)c1cc(-c2ccc(C[C@@H](C#N)NC(=O)[C@H]3N[C@H]4C[C@@H]3[C@@H]3C[C@@H]34)c(F)c2)cs1 [Example 133] | 16.1 | 19400 |
| N#C[C@H](Cc1ccc(-c2ccc3c(c2)CC(=O)N3)cc1F)NC(=O)[C@H]1N[C@H]2C[C@@H]1[C@@H]1C[C@@H]12 [Example 134] | 17.8 | 6700 |
| CCn1cc(-c2ccc(C[C@@H](C#N)NC(=O)[C@H]3N[C@H]4C[C@@H]3[C@@H]3C[C@@H]34)c(F)c2)cn1 [Example 138] | 14.5 | 6400 |
| CS(=O)(=O)Nc1ccc(-c2ccc(C[C@@H](C#N)NC(=O)[C@H]3N[C@H]4C[C@@H]3[C@@H]3C[C@@H]34)c(F)c2)cc1 [Example 140] | 21.5 | 8400 |
| CS(=O)(=O)c1ccc(-c2ccc(C[C@@H](C#N)NC(=O)[C@H]3N[C@H]4C[C@@H]3[C@@H]3C[C@@H]34)c(F)c2)cc1 [Example 141] | 36.6 | 8800 |
| CS(=O)(=O)c1cccc(-c2ccc(C[C@@H](C#N)NC(=O)[C@H]3N[C@H]4C[C@@H]3[C@@H]3C[C@@H]34)c(F)c2)c1 [Example 144] | 26.3 | 11100 |

From patent US8987249B2, “Substituted 2-Aza-bicyclo[2.2.1]heptane-3-carboxylic acid (benzyl-cyano-methyl)-amides inhibitors of Cathepsin C” (Boehringer Ingelheim International GmbH, priority 2013, dated 2015)
